Source: US10017480B2, “Compounds having a selective PDE4D inhibiting activity” (UNIVERSITÂ DEGLI STUDI DI GENOVA, priority 2014, dated 2018)
“And” between values parts separate entries of the source, which are not always exact repeats. Identical values can stand only once.

Legend:
[1] = molecular target: PDE4D3 (Homo sapiens, UniProt Q08499); test: PDE4D3 enzyme inhibition (IMAP); assay type: biochemical; conditions: for PDE4D3 % inib at 10 μM: in duplicate; for IC50: five concentrations 10^−8-10^−4 M
Method: (§1) Compound's evaluation on PDE4D3, PDE4A4, PDE4B2 and PDE4C2 enzyme assays were performed by Scottish Biomedical (Glasgow, Scotland, UK) using recombinant human PDE enzymes expressed in a baculoviral system. The preliminary screening assays were performed by the IMAP technology (Molecular Devices), which is based on the high affinity binding of phosphate by immobilized metal coordination complexes on nanoparticles. The binding reagent complexes with phosphate groups on nucleotide monophosphate generated from cyclic nucleotides (cAMP) through phosphodiesterases. With fluorescence polarization detection, binding causes a change in the rate of the molecular motion of the phosphate bearing molecule and results in an increase in the fluorescence polarization value observed for the fluorescent label attached to the substrate. […] All compounds were solved in DMSO at 10^−2 M concentration and then diluted with water to the final suitable concentrations. All synthesized compounds were tested preliminary on PDE4D3 at 10^−5 M concentration, in duplicate. Results are expressed as a percent inhibition of control activity (see table 1).
IC50 values are reported at μM concentration in table 1. […] The results are reported (as percent of inhibition at 10 μM concentration) in Table 1.

[2] = molecular target: T1, PDE4C2 (Homo sapiens, UniProt Q08493); test: PDE4C2 enzyme inhibition (IMAP); assay type: biochemical
T1 construct: purchased Scottish Biomedical (Glasgow, Scotland, UK); host or cells: baculoviral system
Method: as §1
(§2) The IC50 values obtained for the reference compounds are within accepted limits of historic averages obtained (0.5 log unit). IC50 values are reported at μM concentration in table 1. […] The results are reported (as percent of inhibition at 10 μM concentration) in Table 1.

[3] = molecular target: T2, PDE4B2 (Homo sapiens, UniProt Q07343); test: PDE4B2 enzyme inhibition (IMAP); assay type: biochemical
T2 construct: purchased Scottish Biomedical (Glasgow, Scotland, UK); host or cells: baculoviral system
Method: as §1, §2

[4] = molecular target: PDE4A4 (Homo sapiens, UniProt P27815); test: PDE4A4 enzyme inhibition (IMAP); assay type: biochemical
Method: as §1, §2

[5] = molecular target: PDE4D1 (Homo sapiens, UniProt Q08499); test: PDE4D1 enzyme inhibition (IMAP); assay type: biochemical
[6] = molecular target: PDE4D2 (Homo sapiens, UniProt Q08499); test: PDE4D2 enzyme inhibition (IMAP); assay type: biochemical
Chain of PDE4D2 (Q08499 303-809 limits assumed): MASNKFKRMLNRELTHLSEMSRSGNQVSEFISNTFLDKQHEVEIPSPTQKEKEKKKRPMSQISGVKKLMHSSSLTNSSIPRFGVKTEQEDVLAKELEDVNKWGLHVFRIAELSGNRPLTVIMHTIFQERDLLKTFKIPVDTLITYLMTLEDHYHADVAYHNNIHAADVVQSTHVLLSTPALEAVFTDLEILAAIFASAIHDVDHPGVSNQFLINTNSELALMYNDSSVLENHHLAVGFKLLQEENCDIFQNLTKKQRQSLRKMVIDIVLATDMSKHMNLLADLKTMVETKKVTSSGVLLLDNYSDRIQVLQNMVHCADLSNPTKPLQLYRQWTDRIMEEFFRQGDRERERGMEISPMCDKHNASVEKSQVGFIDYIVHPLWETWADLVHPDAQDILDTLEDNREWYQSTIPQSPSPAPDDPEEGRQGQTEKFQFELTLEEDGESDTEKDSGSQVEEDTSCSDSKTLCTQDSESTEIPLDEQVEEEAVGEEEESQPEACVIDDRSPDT

Chain of PDE4D3 (Q08499 1-673 isoform Q08499-2): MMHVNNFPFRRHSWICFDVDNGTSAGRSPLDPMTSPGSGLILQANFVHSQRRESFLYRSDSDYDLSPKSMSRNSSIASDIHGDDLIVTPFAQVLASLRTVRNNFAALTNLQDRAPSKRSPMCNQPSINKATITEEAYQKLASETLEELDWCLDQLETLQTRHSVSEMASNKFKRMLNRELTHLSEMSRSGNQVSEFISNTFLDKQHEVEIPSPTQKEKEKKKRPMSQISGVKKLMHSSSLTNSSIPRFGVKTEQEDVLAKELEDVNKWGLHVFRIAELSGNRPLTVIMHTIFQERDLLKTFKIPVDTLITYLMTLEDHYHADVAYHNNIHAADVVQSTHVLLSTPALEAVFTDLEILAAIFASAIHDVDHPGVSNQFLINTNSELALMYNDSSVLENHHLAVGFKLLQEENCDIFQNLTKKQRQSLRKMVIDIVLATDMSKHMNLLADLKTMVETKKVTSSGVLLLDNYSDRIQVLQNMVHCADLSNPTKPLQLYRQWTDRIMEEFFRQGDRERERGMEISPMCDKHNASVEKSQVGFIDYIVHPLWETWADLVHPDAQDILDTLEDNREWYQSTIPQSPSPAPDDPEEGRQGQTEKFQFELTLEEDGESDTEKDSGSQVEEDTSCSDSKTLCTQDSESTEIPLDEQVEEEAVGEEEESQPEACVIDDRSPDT
Chain of PDE4A4 (P27815 whole entry): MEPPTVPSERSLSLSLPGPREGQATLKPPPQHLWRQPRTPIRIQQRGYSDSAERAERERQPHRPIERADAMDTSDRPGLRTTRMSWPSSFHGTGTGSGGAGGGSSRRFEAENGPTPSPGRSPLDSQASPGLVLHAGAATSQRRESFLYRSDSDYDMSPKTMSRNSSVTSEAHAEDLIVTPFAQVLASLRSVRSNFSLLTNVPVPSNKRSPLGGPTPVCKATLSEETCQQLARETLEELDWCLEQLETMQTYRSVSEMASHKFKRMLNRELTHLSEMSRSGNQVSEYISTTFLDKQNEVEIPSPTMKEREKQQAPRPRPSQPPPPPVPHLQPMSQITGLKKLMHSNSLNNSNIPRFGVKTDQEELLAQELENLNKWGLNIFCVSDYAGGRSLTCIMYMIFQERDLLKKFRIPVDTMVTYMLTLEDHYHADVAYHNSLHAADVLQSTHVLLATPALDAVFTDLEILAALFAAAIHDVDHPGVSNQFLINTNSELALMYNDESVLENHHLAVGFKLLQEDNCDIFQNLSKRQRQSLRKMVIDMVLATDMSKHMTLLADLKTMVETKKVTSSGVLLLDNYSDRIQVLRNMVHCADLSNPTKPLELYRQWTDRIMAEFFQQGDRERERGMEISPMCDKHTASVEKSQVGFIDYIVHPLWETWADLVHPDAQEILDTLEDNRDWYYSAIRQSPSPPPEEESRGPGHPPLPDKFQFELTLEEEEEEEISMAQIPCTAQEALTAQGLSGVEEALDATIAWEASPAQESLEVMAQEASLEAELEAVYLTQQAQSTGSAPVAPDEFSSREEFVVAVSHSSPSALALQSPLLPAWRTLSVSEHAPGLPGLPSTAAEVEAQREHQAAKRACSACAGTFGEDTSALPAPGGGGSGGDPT
T2 sequence (Q07343 1-564 isoform Q07343-2): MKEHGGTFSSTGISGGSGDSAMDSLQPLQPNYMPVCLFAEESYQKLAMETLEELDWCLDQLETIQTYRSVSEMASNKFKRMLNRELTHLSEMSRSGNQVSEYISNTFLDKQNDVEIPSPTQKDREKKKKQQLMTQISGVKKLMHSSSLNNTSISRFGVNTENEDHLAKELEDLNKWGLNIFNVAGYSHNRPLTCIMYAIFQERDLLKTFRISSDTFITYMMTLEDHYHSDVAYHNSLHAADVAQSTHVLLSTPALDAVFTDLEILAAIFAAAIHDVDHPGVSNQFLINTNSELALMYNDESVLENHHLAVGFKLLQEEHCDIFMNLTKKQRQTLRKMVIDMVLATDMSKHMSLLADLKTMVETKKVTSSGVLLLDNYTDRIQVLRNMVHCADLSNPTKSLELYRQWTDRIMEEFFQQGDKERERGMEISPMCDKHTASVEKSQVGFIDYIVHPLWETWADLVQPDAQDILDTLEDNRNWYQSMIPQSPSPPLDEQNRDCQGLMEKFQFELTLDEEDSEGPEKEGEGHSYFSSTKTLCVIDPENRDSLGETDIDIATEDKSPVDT
T1 sequence (Q08493 107-712): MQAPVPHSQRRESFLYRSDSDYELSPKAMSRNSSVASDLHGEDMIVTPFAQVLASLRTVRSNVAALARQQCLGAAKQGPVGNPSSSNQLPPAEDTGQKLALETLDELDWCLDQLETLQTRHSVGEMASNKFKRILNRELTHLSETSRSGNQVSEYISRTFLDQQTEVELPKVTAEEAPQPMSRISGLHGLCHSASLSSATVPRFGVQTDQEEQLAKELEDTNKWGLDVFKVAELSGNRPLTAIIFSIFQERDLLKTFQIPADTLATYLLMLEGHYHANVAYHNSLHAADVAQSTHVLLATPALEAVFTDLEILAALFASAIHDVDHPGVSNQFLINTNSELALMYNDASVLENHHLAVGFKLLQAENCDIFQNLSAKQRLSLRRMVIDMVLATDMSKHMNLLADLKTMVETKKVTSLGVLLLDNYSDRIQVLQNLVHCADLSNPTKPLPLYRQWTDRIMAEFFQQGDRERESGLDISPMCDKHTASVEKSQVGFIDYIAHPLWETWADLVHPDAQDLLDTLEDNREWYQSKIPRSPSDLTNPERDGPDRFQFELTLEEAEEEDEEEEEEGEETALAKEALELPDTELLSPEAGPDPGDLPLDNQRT
Chain of PDE4D1 (Q08499 1-584 isoform Q08499-4): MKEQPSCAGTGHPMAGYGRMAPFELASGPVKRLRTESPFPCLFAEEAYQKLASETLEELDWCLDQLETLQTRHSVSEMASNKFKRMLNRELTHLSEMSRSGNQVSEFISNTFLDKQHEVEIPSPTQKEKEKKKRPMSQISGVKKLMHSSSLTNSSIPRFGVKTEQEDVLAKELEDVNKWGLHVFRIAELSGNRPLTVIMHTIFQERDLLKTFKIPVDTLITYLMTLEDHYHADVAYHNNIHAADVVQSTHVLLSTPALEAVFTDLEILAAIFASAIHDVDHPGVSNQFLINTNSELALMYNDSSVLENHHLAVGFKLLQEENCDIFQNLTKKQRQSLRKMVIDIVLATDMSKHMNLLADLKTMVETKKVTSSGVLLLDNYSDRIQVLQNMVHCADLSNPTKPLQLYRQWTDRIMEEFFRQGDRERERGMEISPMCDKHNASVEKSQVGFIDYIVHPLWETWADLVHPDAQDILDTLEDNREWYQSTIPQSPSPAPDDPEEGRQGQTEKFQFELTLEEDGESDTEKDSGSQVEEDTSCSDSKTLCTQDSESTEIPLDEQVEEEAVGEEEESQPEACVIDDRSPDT

SMILES	PDE4D3 % inib at 10 μM [1]	melting point	further results
COc1ccc(C2=NOC(C(=O)N3CCOCC3)C2)cc1OC1CCCC1 (stereo not shown) [XIIIa, 4-({3-[3-(Cyclopentyloxy)-4-methoxyphenyl]-4,5-dihydroisoxazol-5-yl}carbonyl)morpholine]	21%	115 to 116 °C	
COc1ccc(C2=NOC(C(=O)N3CC(C)OC(C)C3)C2)cc1OC1CCCC1 (stereo not shown) [XIIIb, 4-({3-[3-(Cyclopentyloxy)-4-methoxyphenyl]-4,5-dihydroisoxazol-5-yl}carbonyl)-2,6-dimethylmorpholine]	29%	127 to 129 °C	
COc1ccc(C2=NOC(C(=O)N3CCC(O)CC3)C2)cc1OC1CCCC1 (stereo not shown) [XIIIc, 1-({3-[3-(Cyclopentyloxy)-4-methoxyphenyl]4,5-dihydroisoxazol-5-yl}carbonyl)piperidin-4-ol]	26%	134 °C	
COc1ccc(C2=NOC(C(=O)N3CCCC3)C2)cc1OC1CCCC1 (stereo not shown) [XIIId, 3-[3-(Cyclopentyloxy)-4-methoxyphenyl]-5-(pyrrolidin-1-ylcarbonyl)-4,5-dihydroisoxazole]	15%	126 to 127 °C	
COc1ccc(C2=NOC(C(=O)N3CCCCC3)C2)cc1OC1CCCC1 (stereo not shown) [XIIIe, 1-({3-[3-(Cyclopentyloxy)-4-methoxyphenyl]-4,5-dihydroisoxazol-5-yl}carbonyl)piperidine]	8%	130 °C	
COc1ccc(C2=NOC(CC(=O)N3CCOCC3)C2)cc1OC1CCCC1 (stereo not shown) [XIVa, 4-({3-[3-(Cyclopentyloxy)-4-methoxyphenyl]-4,5-dihydroisoxazol-5-yl}acetyl)morpholine]	29%	144 °C and 144 to 145 °C	
COc1ccc(C2=NOC(CC(=O)N3CC(C)OC(C)C3)C2)cc1OC1CCCC1 (stereo not shown) [XIVb, 4-({3-[3-(Cyclopentiloxy)-4-methoxyphenyl]-4,5-dihydroisoxazol-5-yl}acetil) 2,6-dimethylmorpholine]	51%	104 to 105 °C	IC50 [1]: 5580 nM; PDE4C2 % inib at 10 μM [2]: 23%; PDE4B2 % inib at 10 μM [3]: 27%; PDE4A4 % inib at 10 μM [4]: 45%
COc1ccc(C2=NOC(CC(=O)N3CCC(O)CC3)C2)cc1OC1CCCC1 (stereo not shown) [XIVc, 1-({3-[3-(Cyclopentyloxy)-4-methoxyphenyl]-4,5-dihydroisoxazol-5-yl}acetyl)piperidin-4-ol]	30%	134 °C	
COc1ccc(C2=NOC(CC(=O)N3CCCC3)C2)cc1OC1CCCC1 (stereo not shown) [XIVd, 3-[3-(Cyclopentyloxy)-4-methoxyphenyl]-5-(2-oxo-2-pyrrolidin-1-ylethyl)-4,5-dihydroisoxazole]	57%		IC50 [1]: 1220 nM; PDE4C2 % inib at 10 μM [2]: 47%; PDE4B2 % inib at 10 μM [3]: 59%; PDE4A4 % inib at 10 μM [4]: 66%
COc1ccc(C2=NOC(CC(=O)N3CCCCC3)C2)cc1OC1CCCC1 (stereo not shown) [XIVe, 1-({3-[3-(Cyclopentyloxy)-4-methoxyphenyl]-4,5-dihydroisoxazol-5-yl}acetyl)piperidine]	40%	104 to 106 °C	
COc1ccc(C2=NOC(CC(=O)N3CCNCC3)C2)cc1OC1CCCC1 (stereo not shown) [XIVf, 1-({3-[3-(Cyclopentyloxy)-4-methoxyphenyl]-4,5-dihydroisoxazol-5-yl}acetyl)piperazine]	23%	108 to 111 °C	
COc1ccc(C2=NOC(CC(=O)N(CCO)CCO)C2)cc1OC1CCCC1 (stereo not shown) [XIVg, 2-{3-[3-(Cyclopentyloxy)-4-methoxyphenyl]-4,5-dihydroisoxazol-5-yl}-N,N-bis(2-hydroxyethyl)acetamide]	65%	136 to 138 °C	IC50 [1]: 1110 nM; PDE4C2 % inib at 10 μM [2]: 40%; PDE4B2 % inib at 10 μM [3]: 68%; PDE4A4 % inib at 10 μM [4]: 69%
COc1ccc(-c2ccn(CC(O)CN3CC(C)OC(C)C3)n2)cc1OC1CCCC1 (stereo not shown) [XVIIIb, 1-{3-[3-(Cyclopentyloxy)-4-methoxyphenyl]-1H-pyrazol-1-yl}-3-(2,6-dimethylmorpholin-4-yl)propan-2-ol dihydrocloride]	78%		IC50 [1]: 6000 nM; PDE4C2 % inib at 10 μM [2]: 45%; PDE4D1 % inib at 10 μM [5]: 77%; PDE4D2 % inib at 10 μM [6]: 75%; IC50 [3]: 460 nM; PDE4B2 % inib at 10 μM [3]: 53.0%; IC50 [4]: 120 nM; PDE4A4 % inib at 10 μM [4]: 52%
COc1ccc(-c2cc(C(=O)N3CCOCC3)on2)cc1OC1CCCC1 [XVIIa, 4-({3-[3-(Cyclopentyloxy)-4-methoxyphenyl]isoxazol-5-yl}carbonyl)morpholine]	41%	100 to 101 °C	
COc1ccc(-c2cc(C(=O)N3CC(C)OC(C)C3)on2)cc1OC1CCCC1 (stereo not shown) [XVIIb, 4-({3-[3-(Cyclopentyloxy)-4-methoxyphenyl]isoxazol-5-yl}carbonyl)-2,6-dimethylmorpholine]	35%	152 to 153 °C	
COc1ccc(-c2cc(C(O)CN3CCOCC3)on2)cc1OC1CCCC1 (stereo not shown) [XVIa, 1-{3-[3-(Cyclopentyloxy)-4-methoxyphenyl]isoxazol-5-yl}-2-morpholin-4-ylethanol]	38%	136 to 137 °C	
COc1ccc(-c2cc(C(O)CN3CC(C)OC(C)C3)on2)cc1OC1CCCC1 (stereo not shown) [XVIb, 1-{3-[3-(Cyclopentyloxy)-4-methoxyphenyl]isoxazol-5-yl}-2-(2,6-dimethylmorpholin-4-yl)ethanol]	15%	92 to 94 °C	PDE4C2 % inib at 10 μM [2]: 7%; PDE4D1 % inib at 10 μM [5]: 2%; PDE4D2 % inib at 10 μM [6]: 3%; PDE4B2 % inib at 10 μM [3]: 5%; PDE4A4 % inib at 10 μM [4]: 0%
COc1ccc(-c2ccn(CC(=O)N3CCOCC3)c2)cc1OC1CCCC1 [XXIIIa, 2-{3-[3-(cyclopentyloxy)-4-methoxy-phenyl]-pyrrol-1-yl}-1-morpholin-4-yl-ethanone]	7%	169 to 171 °C	
COc1ccc(-c2ccn(CC(=O)N3CC(C)OC(C)C3)c2)cc1OC1CCCC1 (stereo not shown) [XXIIIb, 2-{3-[3-(Cyclopentyloxy)-4-methoxy-phenyl]-pyrrol-1-yl}-1-(2,6-dimethyl-morpholin-4-yl)-ethanone]	13%	108 to 112 °C	
COc1ccc(-c2ccn(CC(=O)N3CCC(O)CC3)c2)cc1OC1CCCC1 [XXIIIc, 2-{3-[3-(Cyclopentyloxy)-4-methoxy-phenyl]-pyrrol-1-yl}-1-(4-hydroxy-piperidin-1-yl)-ethanone]	9%	156 to 158 °C	
COc1ccc(-c2ccn(CCC(=O)N3CCOCC3)c2)cc1OC1CCCC1 [XXIVa, 3-{3-[3-(cyclopentyloxy)-4-methoxy-phenyl]-pyrrol-1-yl}-1-morpholin-4-yl-propan-1-one]	44%	110 to 112 °C	
COc1ccc(-c2ccn(CCC(=O)N3CCC(O)CC3)c2)cc1OC1CCCC1 [XXIVc]	29%	110 to 112 °C	
COc1ccc(-c2ccn(CCC(=O)N3CCOCC3)n2)cc1OC1CCCC1 [XXIa, 4-(3-{3-[3-(cyclopentyloxy)-4-methoxyphenyl]-1H-pyrazol-1-yl}propanoyl)morpholine]	42%		PDE4C2 % inib at 10 μM [2]: 10%
COc1ccc(-c2ccn(CCC(=O)N3CC(C)OC(C)C3)n2)cc1OC1CCCC1 (stereo not shown) [XXIb, 4-(3-{3-[3-(cyclopentyloxy)-4-methoxyphenyl]-1H-pyrazol-1-yl}propanoyl)2,6-dimethylmorpholine]	53%		IC50 [1]: 1800 nM; PDE4C2 % inib at 10 μM [2]: 42%; PDE4B2 % inib at 10 μM [3]: 28%; PDE4A4 % inib at 10 μM [4]: 28%
COc1ccc(-c2ccn(CC(=O)N3CCOCC3)n2)cc1OC1CCCC1 [XXa, 4-({3-[3-(Cyclopentyloxy)-4-methoxyphenyl]-1H-pyrazol-1-yl}acetyl)morpholine]	27%	131 to 132 °C	PDE4D1 % inib at 10 μM [5]: 42%; PDE4D2 % inib at 10 μM [6]: 23%
COc1ccc(-c2ccn(CC(=O)N3CC(C)OC(C)C3)n2)cc1OC1CCCC1 (stereo not shown) [XXb, 4-({3-[3-(Cyclopentyloxy)-4-methoxyphenyl]-1H-pyrazol-1-yl}acetyl)2,6-dimethylmorpholine]	23%	99 to 100 °C	PDE4D1 % inib at 10 μM [5]: 18%; PDE4D2 % inib at 10 μM [6]: 13%
